Measurements taken from patent US20230181536A1, “ANTICANCER COMBINATION THERAPY WITH N-(1-ACRYLOYL-AZETIDIN-3-YL)-2-((1H-INDAZOL-3-YL)AMINO)METHYL)-1H-IMIDAZOLE-5-CARBOXAMIDE INHIBITOR OF KRAS-G12C” (TAIHO PHARMACEUTICAL CO., LTD., priority 2020, published 2023).

target: T1, KRAS G12C (Homo sapiens, UniProt P01116, G12C); assay: Inhibitory activity on the KRAS G12C nucleotide (GDP-GTP) exchange reaction; type: biochemical; details: Bodipy FL GDP-bound KRAS G12C 25 nM; preincubation at 25° C. for 4 hours; SOS1 100 nM, GppNHp 1 μM, reaction for 30 minutes
T1 construct: KRAS G12C (amino acid region: 1-169)
Experimental: Test Example 2: Evaluation of Inhibitory Activity of Compounds on the KRAS G12C Nucleotide (GDP-GTP) Exchange Reaction
The inhibitory activity of compounds on the exchange reaction of GDP into GppNHp in Bodipy (trademark) FL-bound KRAS G12C was examined by fluorescence measurement using human recombinant KRAS G12C and SOS1 proteins.
For the preparation of KRAS G12C to which Bodipy FL GDP was bound, first, 50 µM KRAS G12C (amino acid region: 1-169) and 1 mM Bodipy FL GDP (Invitrogen, G22360) were incubated for 1 hour in a buffer (20 mM Tris-HCl (pH 7.5), 50 mM NaCl, 1 mM DTT) in ice in the presence of 2.5 mM EDTA. Thereafter, MgCl2 with a final concentration of 10 mM was added, and the mixture was incubated at room temperature for 30 minutes. The protein was allowed to pass through a NAP-5 column to remove free nucleotides and was used for compound evaluation.
For the measurement of the inhibitory activity of compounds on nucleotide exchange reaction, first, the compound of the disclosure was diluted stepwise with dimethyl sulfoxide (DMSO). Subsequently, a solution of the gradually diluted compound of the disclosure in DMSO (the final concentration of DMSO: 5%) and KRAS G12C (25 nM) bound to Bodipy FL GDP were added to a reaction buffer (20 mM Tris-HCl (pH 7.5), 100 mM NaCl, 1 mM MgCl2, 2 mM DTT, 0.1% Tween20), followed by preincubation at 25° C. for 4 hours. Thereafter, Son of Sevenless Homolog 1 (SOS1, amino acid region: 564-1049) and GppNHp (GMPPNP, Jena Bioscience GmbH, NU-401-50) were added such that their final concentration was 100 nM and 1 μM respectively, followed by reaction for 30 minutes. The change in fluorescence intensity of Bodipy FL (excitation wavelength: 485 nm, fluorescence wavelength: 520 nm) immediately after the start of reaction and after 30 minutes from the start of reaction was standardized. The signal value for only DMSO was determined to be 0% inhibition, and the signal value for no addition of GppNHp was determined to be 100% inhibition. The compound concentration at which 50% inhibition is achieved was determined to be the IC50 (nM) and was calculated.

T1 sequence (P01116 1-169 isoform P01116-2 G12C): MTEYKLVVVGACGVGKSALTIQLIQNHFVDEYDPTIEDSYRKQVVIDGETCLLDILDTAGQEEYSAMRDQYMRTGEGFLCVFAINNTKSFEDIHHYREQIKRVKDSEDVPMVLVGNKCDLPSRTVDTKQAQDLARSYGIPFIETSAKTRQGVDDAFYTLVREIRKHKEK

| Compound | IC50 |
| --- | --- |
| C=CC(=O)N1CC(NC(=O)c2c(C)c(CNc3n[nH]c4cc(Cl)c(C(C)(C)C)cc34)nn2C)C1 [Example 10, N-(1-acryloylazetidin-3-yl)-3-(((5-(tert-butyl)-6-chloro-1H-indazol-3-yl)amino)methyl)-1,4-dimethyl-1H-pyrazole-5-carboxamide] | 129 nM |
| C=CC(=O)N1CC(NC(=O)c2c(C)nc(CNc3n[nH]c4cc(Cl)c(C(C)(C)C)cc34)n2C2CC2)C1 [Example 23, N-(1-acryloylazetidin-3-yl)-2-(((5-(tert-butyl)-6-chloro-1H-indazol-3-yl)amino)methyl)-1-cyclopropyl-4-methyl-1H-imidazole-5-carboxamide] | 7 nM |
| C=CS(=O)(=O)N1CC(NC(=O)c2c(C)nc(CNc3n[nH]c4cc(Cl)c(C(C)(C)C)cc34)n2C(C)C)C1 [Example 86, 2-(((5-(tert-butyl)-6-chloro-1H-indazol-3-yl)amino)methyl)-1-isopropyl-4-methyl-N-(1-(vinylsulfonyl)azetidin-3-yl)-1H-imidazole-5-carboxamide] | 58 nM |
| C=CC(=O)N1CC(NC(=O)c2c(C)nc(CNc3n[nH]c4cc(Cl)c(C(C)(C)C)cc34)n2CCCC)C1 [Example 18, N-(1-acryloylazetidin-3-yl)-1-butyl 2-(((5-(tert-butyl)-6-chloro-JH-indazol-3-yl)amino)methyl)-4-methyl-JH-imidazole-5-carboxamide] | 12 nM |
| [2H]C([2H])(Nc1n[nH]c2cc(Cl)c(C(C)(C)C)cc12)c1nc(C)c(C(=O)NC2CN(C(=O)C=C)C2)n1C [Example 5, N-(1-acryloylazetidin-3-yl)-2-(((5-(tert-butyl)-6-chloro-1H-indazol-3-yl)amino)methyl-d2)-1,4-dimethyl-1H-imidazole-5-carboxamide] | 10 nM |
| C=CC(=O)N1C[C@@H](CN(C)C)[C@@H](NC(=O)c2c(C)nc(CNc3n[nH]c4cc(Cl)c(C(C)(C)C)cc34)n2C)C1 [Example 68, N-((3R,4R)-1-acryloyl-4-((dimethylamino)methyl)pyrrolidin-3-yl)-2-(((5-(tert-butyl)-6-chloro-1H-indazol-3-yl)amino)methyl)-1,4-dimethyl-1H-imidazole-5-carboxamide] | 99 nM |
| C=CC(=O)N1CC(NC(=O)c2c(Cl)nc(CNc3n[nH]c4cc(Cl)c(C(C)(C)C)cc34)n2C)C1 [Example 29, N-(1-acryloylazetidin-3-yl)-2-(((5-(tert-butyl)-6-chloro-1H-indazol-3-yl)amino)methyl)-4-chloro-1-methyl-1H-imidazole-5-carboxamide] | 6 nM |
| C=CC(=O)N1CC(NC(=O)c2c(Cl)nc(CNc3n[nH]c4cc(Cl)c(C(C)C)cc34)n2C(C)C)C1 [Example 45, N-(1-acryloylazetidin-3-yl)-4-chloro-2-(((6-chloro-5-isopropyl-1H-indazol-3-yl)amino)methyl)-1-isopropyl-1H-imidazole-5-carboxamide] | 24 nM |
| C=CC(=O)N1C[C@@H](C)[C@@H](NC(=O)c2c(C)nc(CNc3n[nH]c4cc(Cl)c(C(C)(C)C)cc34)n2C)C1 [Example 55, N-((3R,4R)-1-acryloyl-4-methylpyrrolidin-3-yl)-2-(((5-(tert-butyl)-6-chloro-1H-indazol-3-yl)amino)methyl)-1,4-dimethyl-1H-imidazole-5-carboxamide] | 24 nM |
| C=CC(=O)N1CC(NC(=O)c2c(C)nc(CNc3n[nH]c4cc(Cl)c(C(C)(C)C)cc34)n2C(C)C)C1 [Example 13, N-(1-acryloylazetidin-3-yl)-2-(((5-(tert-butyl)-6-chloro-1H-indazol-3-yl)amino)methyl)-1-isopropyl-4-methyl-1H-imidazole-5-carboxamide] | 15 nM |

More lines, now with the values ahead:

| IC50 | Compound |
| --- | --- |
| 4 nM | C=CC(=O)N1CC(NC(=O)c2c(C(F)F)nc(CNc3n[nH]c4cc(Cl)c(C(C)(C)C)cc34)n2C2CCN(C(C)=O)C2)C1 (stereo not shown) [Example 96, 1-(1-Acetylpyrrolidin-3-yl)-N-(1-acryloylazetidin-3-yl)-2-(((5-(tert-butyl)-6-chloro-1H-indazol-3-yl)amino)methyl)-4-(difluoromethyl)-1H-imidazole-5-carboxamide] |
| 791 nM | C=CC(=O)N1CC(NC(=O)c2c(Cl)c(CNc3n[nH]c4cc(Cl)c(C(C)(C)C)cc34)nn2C)C1 [Example 6, N-(1-acryloylazetidin-3-yl)-3-(((5-(tert-butyl)-6-chloro-1H-indazol-3-yl)amino)methyl)-4-chloro-1-methyl-1H-pyrazole-5-carboxamide] |
| 13 nM | C=CC(=O)N1CC(NC(=O)c2c(C(F)F)nc(CNc3n[nH]c4cc(Cl)c(C(C)(C)C)cc34)n2C(C)C)C1 [Example 33, N-(1-acryloylazetidin-3-yl)-2-(((5-(tert-butyl)-6-chloro-1H-indazol-3-yl)amino)methyl)-4-(difluoromethyl)-1-isopropyl-1H-imidazole-5-carboxamide] |
| 16 nM | C=CC(=O)N1CC(NC(=O)c2c(C)nc(CNc3n[nH]c4cc(Cl)c(C(C)(C)C)cc34)n2CC)C1 [Example 12, N-(1-acryloylazetidin-3-yl)-2-(((5-(tert-butyl)-6-chloro-1H-indazol-3-yl)amino)methyl)-1-ethyl-4-methyl-1H-imidazole-5-carboxamide] |
| 36 nM | C=CC(=O)N1C[C@@H](C)[C@@H](NC(=O)c2c(F)nc(CNc3n[nH]c4cc(Cl)c(C(C)(C)C)cc34)n2C)C1 [Example 74, N-((3R,4R)-1-acryloyl-4-methylpyrrolidin-3-yl)-2-(((5-(tert-butyl)-6-chloro-1H-indazol-3-yl)amino)methyl)-4-fluoro-1-methyl-1H-imidazole-5-carboxamide] |
| 7 nM | C=CC(=O)N1CC(NC(=O)c2c(Cl)nc(CNc3n[nH]c4cc(Cl)c(C(C)(C)C)cc34)n2C2CCOCC2)C1 [Example 101, N-(1-acryloylazetidin-3-yl)-2-(((5-(tert-butyl)-6-chloro-1H-indazol-3-yl)amino)methyl)-4-chloro-1-(tetrahydro-2H-pyran-4-yl)-1H-imidazole-5-carboxamide] |
| 58 nM | C=CC(=O)N1CC(NC(=O)c2c(C)nc(CNc3n[nH]c4cc(Cl)c(C(C)(C)C)cc34)n2C(F)F)C1 [Example 21, N-(1-acryloylazetidin-3-yl)-2-(((5-(tert-butyl)-6-chloro-1H-indazol-3-yl)amino)methyl)-1-(difluoromethyl)-4-methyl-1H-imidazole-5-carboxamide] |
| 6650 nM | C=CC(=O)N1C[C@@H](CC)[C@@H](NC(=O)c2c(C)nc(CNc3n[nH]c4cc(Cl)c(C(C)(C)C)cc34)n2C)C1 [Example 69, N-((3R,4R)-1-acryloyl-4-ethylpyrrolidin-3-yl)-2-(((5-(tert-butyl)-6-chloro-1H-indazol-3-yl)amino)methyl)-1,4-dimethyl-1H-imidazole-5-carboxamide] |
| 11 nM | C=CC(=O)N1CC(NC(=O)c2c(Cl)nc(CNc3n[nH]c4cc(Cl)c(C(C)(C)C)cc34)n2[C@@H]2CCN(CCOC)C2)C1 [Example 119, (R)-N-(1-acryloylazetidin-3-yl)-2-(((5-(tert-butyl)-6-chloro-1H-indazol-3-yl)amino)methyl)-4-chloro-1-(1-(2-methoxyethyl)pyrrolidin-3-yl)-1H-imidazole-5-carboxamide] |
| 5 nM | C=CC(=O)N1CC(NC(=O)c2c(Cl)nc(CNc3n[nH]c4cc(Cl)c(C(C)(C)C)cc34)n2[C@@H]2CCOC2)C1 [Example 102, (R)-N-(1-acryloylazetidin-3-yl)-2-(((5-(tert-butyl)-6-chloro-1H-indazol-3-yl)amino)methyl)-4-chloro-1-(tetrahydrofuran-3-yl)-1H-imidazole-5-carboxamide] |
| 5 nM | C=CC(=O)N1CC(NC(=O)c2c(Cl)nc(CNc3n[nH]c4cc(Cl)c(C(C)(C)C)cc34)n2[C@@H]2CCN(C3COC3)C2)C1 [Example 121, (R)-N-(1-acryloylazetidin-3-yl)-2-(((5-(tert-butyl)-6-chloro-1H-indazol-3-yl)amino)methyl)-4-chloro-1-(1-(oxetan-3-yl)pyrrolidin-3-yl)-1H-imidazole-5-carboxamide] |
| 2350 nM | Cc1nc(CNc2n[nH]c3cc(Cl)c(C(C)(C)C)cc23)n(C(C)C)c1C(=O)NC1CN(C(=O)/C=C\Cl)C1 [Example 83, (Z)-2-(((5-(tert-butyl)-6-chloro-1H-indazol-3-yl)amino)methyl)-N-(1-(3-chloroacryloyl)azetidin-3-yl)-1-isopropyl-4-methyl-1H-imidazole-5-carboxamide] |
